Experimental data from patent publication US8227433B2, “Use of inhibitors and antisense oligonucleotides of BTK for treating proliferative mastocytosis” (Centre National de la Recherche Scientifique (CNRS), priority 2003, dated 2012).

What was measured:
HMC1 cells [1] = test: Determination of HMC1 cells sensibility to G418 (lethal geneticine dose); type: cell-based, human; settings: 6 wells plate; 0 to 1.4 mg/ml tested; colonies visualized one week after seeding
Description: To determine, the lethal geneticine dose for HMC1, cells were seeded in 6 wells plate (10^5 cells/wells) in presence of increasing concentration of geneticine (0; 0.6; 0.8; 1; 1.2; 1.4 mg/ml). One week after seeding, colonies are visualized by crystal purple coloration. It appears that the effective dose was 1.2 mg/ml geneticine in the culture Media. Indeed, at lower doses, we observed development of HMC1 colonies. • -Infection of HMC1 Cells

HMC-1 cells = test: Tumor size in nude mice injected with HMC-1 cells expressing the BTK antisense; type: in vivo; settings: nude mice injected with 2 millions HMC-1 cells, tumor size assessed few weeks after injection, FIG. 4
Text: We used nude mice, which have been injected with 2 millions HMC-1 cells.

BTK = BTK expression in HMC-1 clones that integrated the retrovirus vector coding for the BTK antisense RNA; type: cell-based, human; settings: HMC-1 target cells which integrated the vector; 4 clones; FIG. 3
Text: 2.1 We used antisense RNA to inhibit the expression of BTK in HMC-1, which is resistant to apoptosis. In this regard, we have constructed a retrovirus vector coding for an antisense RNA containing 32 nucleotides directed to the sequence comprised in the AUG region of the BTK gene (SEQ ID No 1).
Target cells, which integrated this vector, show a significant decrease in the expression of BTK. Regarding 4 clones, we have noted a decrease of about 50% of the expression of the BTK (see FIG. 3).

HMC1 cells [2] = test: G418-resistant colony formation of HMC1 cells infected with LNCX or LNCX-AS BTK virus; type: cell-based
Description: HMC1 cells seeded the day before in 6 wells plates (10^5 cells/ well) are infected with increasing doses of LNCX or LNCX-AS BTK virus. 24 hours after infection, cells are washed in PBS and cultured in medium containing geneticine (1.2 mg/ml). After one week, we observed the formation of colonies resistant to geneticine and whose number depends on the quantity of virus used for infection. When comparing the number of colonies of HMC1 resisting to G418 obtained from cells infected with the LNCX or LNCX-AS BTK virus, we observed independently of the virus concentration used, a lower number of colonies of cells infected with LNCX-AS BTK relative to the number of colonies of cells infected with LNCX. For equivalent quantity of virus, we obtained between 5 to 10 fold less colonies of HMC resisting to G418 by infecting with the LNCX-AS BTK virus compared to the infection with the LNCX “empty”.
The 10 to 20% surviving clones are those for which the antisense expression level is weak thereby maintaining a BTK expression level compatible with cellular survival.

Q: CN[C@@H]1[C@@H](O)[C@@H](O[C@@H]2[C@@H](O)[C@H](O[C@H]3O[C@H]([C@@H](C)O)[C@@H](O)[C@H](O)[C@H]3N)[C@@H](N)C[C@H]2N)OC[C@]1(C)O [geneticine] was tested. Which “lethal (effective) geneticine dose for HMC1” value (HMC1 cells [1]) did it give?
A: The value was 1.2 mg/mL.

Q: What does the source list for “5′ AGAATCACTGCGGCCATAGCTTCTTCTTTCTG 3′ (chemistry not given here) [BTK antisense]”?
A: anti-tumoral effect (size of the tumors) (HMC-1 cells): significant anti-tumoral effects; anti-tumoral effect (size of the tumors) (HMC-1 cells; listed as antisens oligonucleotide directed against BTK): significantly decrease the size of tumors; decrease of the expression of the BTK (BTK): about 50%; cellular mortality (HMC1 cells [2]; HMC1 cells, decrease of BTK expression by the antisense RNA): 80 to 90%; surviving clones (HMC1 cells [2]; HMC1 clones with weak antisense expression level): 10 to 20%
